What was measured:
Design in all cases: key: “+” indicates that the compound exibits inhibitory activity; “−” indicates that low or no inhibitory activity was observed
HeLa cells = assay: Cell proliferation assay, photographic image analysis of proliferation, apoptosis and death (PAD assay), HeLa; format: cell-based; details: 6 concentrations tested
Experimental: (§1) A549 (ATCC# CCL-185), HeLa (ATCC# CCL-2), HCT116 (ATCC# CCL-247), and H1299 (ATCC# CRL-5803) cells were maintained in T175 flasks following the ATCC recommended media and handling procedures. Flasks reaching approximately 70% confluency were trypsinized and resuspended in RPMI media (Cell-Gro catalog number 10-040-CM) modified to contain 5% FBS, 100 ug/mlPen/Strep (Cell-Gro catalog number 30-002-CL), and 0.3 mg/ml L-Glutamine (Cell-Gro catalog number 25-003-CL). A 20,000 cells/ml solution was made for plating. Cells were plated in black Packard 96 well plates by placing 100 μl per well (2,000 cells per well).
(§2) Compounds and additional media were added 24 hours after cell plating. A compound master plate was created with concentrations 500 times greater than the final concentration added to the cells. All compound testing was done in duplicate using 6.3 fold dilutions starting with 10 mM. All outside wells (and 4 internal wells) were DMSO controls. Taxol and at least one additional control were run on all plates. Three microliters of the compound master plate were added to deep well blocks containing 750 μl of RPMI media. One hundred microliters were transferred from the compound/media deep well blocks to the plated cells resulting in a 500 fold dilution of the compounds. Cells were grown at 37° C., 5% CO2 for 48 hours.
(§3) Cells to be analyzed by photography were fixed and stained. One hundred microliters of media were removed and 100 μl of 9.3% […] was added to each well. Plates were left on the benchtop for 45 minutes. A staining solution containing 1.55 μl of 1 mg/ml DAPI added to 18.75 ml PBS was warmed for 15 minutes at 37° C. The cells were aspirated prior to washing with 100 μl of PBS. Seventy microliters of PBS were aspirated and 170 μl of the DAPI solution were added to each well of fixed cells. Plates were left at room temperature for one hour then aspirated and washed twice with 100 μl of PBS. The stained cells were left at 4° C. for a minimum of 16 hours before photographic analysis with Array Scan II (Cellomics). Analysis of the photographic images to determine numbers of live cells (proliferation), apoptotic cells and dead cells, were according to the methods described in U.S. Provisional Patent Application Ser. No. 60/406,714, which incorporated herein in its entirety.

[1] = biological target: E3 (His-APC11/APC2-"APC") (Homo sapiens, UniProt Q9NYG5+Q9UJX6); assay: Plate-based E3 ligase assay (APC FLAG), auto-ubiquitination; format: biochemical; details: for APC Flag 8 pt: 8 concentrations tested
Sequence of E3 (His-APC11/APC2-"APC") (Q9NYG5 whole entry): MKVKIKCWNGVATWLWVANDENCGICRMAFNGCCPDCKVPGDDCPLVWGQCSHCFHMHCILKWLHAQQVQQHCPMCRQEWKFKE
Sequence of E3 (His-APC11/APC2-"APC") (Q9UJX6 whole entry): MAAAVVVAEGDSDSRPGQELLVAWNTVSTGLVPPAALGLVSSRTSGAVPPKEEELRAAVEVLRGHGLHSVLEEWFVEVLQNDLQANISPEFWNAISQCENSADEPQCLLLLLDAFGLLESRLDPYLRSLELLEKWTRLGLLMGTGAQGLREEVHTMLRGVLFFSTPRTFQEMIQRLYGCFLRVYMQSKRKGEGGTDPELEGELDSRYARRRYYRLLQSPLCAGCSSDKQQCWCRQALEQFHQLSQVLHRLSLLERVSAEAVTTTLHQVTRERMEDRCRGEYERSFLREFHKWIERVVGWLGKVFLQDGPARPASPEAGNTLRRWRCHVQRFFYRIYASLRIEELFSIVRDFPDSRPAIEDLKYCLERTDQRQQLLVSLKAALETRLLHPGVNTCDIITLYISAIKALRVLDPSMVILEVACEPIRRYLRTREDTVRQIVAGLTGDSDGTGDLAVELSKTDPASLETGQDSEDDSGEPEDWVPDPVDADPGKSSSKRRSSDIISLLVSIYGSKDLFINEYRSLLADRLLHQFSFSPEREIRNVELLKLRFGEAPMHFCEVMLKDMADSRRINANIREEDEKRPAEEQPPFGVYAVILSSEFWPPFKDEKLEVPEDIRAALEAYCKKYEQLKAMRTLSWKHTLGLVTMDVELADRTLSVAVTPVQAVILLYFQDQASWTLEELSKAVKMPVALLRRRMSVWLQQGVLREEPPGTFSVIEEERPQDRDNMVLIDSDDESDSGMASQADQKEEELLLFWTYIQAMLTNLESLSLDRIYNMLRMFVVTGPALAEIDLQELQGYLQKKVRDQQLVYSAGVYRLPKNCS
Procedure, shortened: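 His-APC11/APC2 auto-ubiquitination was run in casein-blocked nickel plates for 1 h at room temperature, with E1 at 5 ng/well, UbcH5c at 20 ng/well and APC at 100 ng/well. Buffer was 62.5 mM Tris pH 7.6, 3 mM MgCl2, 1 mM DTT, 2.5 mM ATP and Flag-ubiquitin at 100 ng/well. Detection used anti-Flag/HRP chemiluminescence, and IC50 was typically from 6 or 8 concentrations versus a DMSO control.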

A549 cells = assay: Cell proliferation assay, photographic image analysis of proliferation, apoptosis and death (PAD assay), A549; format: cell-based; details: 6 concentrations tested
Experimental: as §1, §2, §3

Row | SMILES | PAD Assay, HELA 6 pt (HeLa cells) | APC Flag 8 pt [1] | PAD Assay, A549 6 pt (A549 cells) | APC Flag (2 pt) ([1]; 2 concentrations tested)
1 | O=[N+]([O-])c1ccc(Oc2c(Cl)cc(S(=O)(=O)Nc3ccc4cn[nH]c4c3)cc2Cl)c(Cl)c1 [Example 171, 3,5-dichloro-4-(2-chloro-4-nitrophenoxy)-N-1H-indazol-6-ylbenzenesulfonamide] | − | − | + | 
2 | O=[N+]([O-])c1ccc(Oc2c(Cl)cc(S(=O)(=O)Nc3cccc4c3OC(F)(F)C(F)(F)O4)cc2Cl)c(Cl)c1 [Example 192, 3,5-dichloro-4-(2-chloro-4-nitrophenoxy)-N-(2,2,3,3-tetrafluoro-2,3-dihydro-1,4-benzodioxin-5-yl)benzenesulfonamide] | − | + | − | 
3 | O=[N+]([O-])c1ccc(Oc2c(Cl)cc(S(=O)(=O)Nc3cc(F)c(F)cc3F)cc2Cl)c(Cl)c1 [Example 199, 3,5-dichloro-4-(2-chloro-4-nitrophenoxy)-N-(2,4,5-trifluorophenyl)benzenesulfonamide] | + | + | + | 
4 | Cc1cc(NS(=O)(=O)c2cc(Cl)c(Oc3ccc([N+](=O)[O-])cc3Cl)c(Cl)c2)no1 [Example 217, 3,5-dichloro-4-(2-chloro-4-nitrophenoxy)-N-(5-methylisoxazol-3-yl)benzenesulfonamide] | − |  | − | − (2 pt)
5 | Cc1ccc(C(F)(F)F)cc1NS(=O)(=O)c1cc(Cl)c(Oc2ccc([N+](=O)[O-])cc2Cl)c(Cl)c1 [Example 229, 3,5-dichloro-4-(2-chloro-4-nitrophenoxy)-N-[2-methyl-5-(trifluoromethyl)phenyl] benzenesulfonamide] | + | + | + | 
6 | CC(C)(C)c1cccc(C(C)(C)C)c1NS(=O)(=O)c1cc(Cl)c(Oc2ccc([N+](=O)[O-])cc2Cl)c(Cl)c1 [Example 231, 3,5-dichloro-4-(2-chloro-4-nitrophenoxy)-N-(2,6-di-tert-butylphenyl)benzenesulfonamide] | + | + | + | 
7 | O=[N+]([O-])c1ccc(Oc2c(Cl)cc(S(=O)(=O)Nc3cccc(F)c3)cc2Cl)c(Cl)c1 [Example 232, 3,5-dichloro-4-(2-chloro-4-nitrophenoxy)-N-(3-fluorophenyl)benzenesulfonamide] | + | + | + | 
8 | Cc1c(F)cccc1NS(=O)(=O)c1cc(Cl)c(Oc2ccc([N+](=O)[O-])cc2Cl)c(Cl)c1 [Example 234, 3,5-dichloro-4-(2-chloro-4-nitrophenoxy)-N-(3-fluoro-2-methylphenyl)benzene-sulfonamide] | + | + | + | 
9 | Cc1cc(F)ccc1NS(=O)(=O)c1cc(Cl)c(Oc2ccc([N+](=O)[O-])cc2Cl)c(Cl)c1 [Example 236, 3,5-dichloro-4-(2-chloro-4-nitrophenoxy)-N-(4-fluoro-2-methylphenyl)benzene-sulfonamide] | + | + | + | 
10 | O=[N+]([O-])c1ccc(Oc2c(Cl)cc(S(=O)(=O)Nc3cc(F)ccc3F)cc2Cl)c(Cl)c1 [Example 237, 3,5-dichloro-4-(2-chloro-4-nitrophenoxy)-N-(2,5-difluorophenyl)benzenesulfonamide] | + | + | + | 
11 | O=[N+]([O-])c1ccc(Oc2c(Cl)cc(S(=O)(=O)Nc3c(F)cccc3F)cc2Cl)c(Cl)c1 [Example 238, 3,5-dichloro-4-(2-chloro-4-nitrophenoxy)-N-(2,6-difluorophenyl)benzenesulfonamide] | + | + | + | 
12 | O=[N+]([O-])c1ccc(Oc2c(Cl)cc(S(=O)(=O)Nc3c(F)cc(F)cc3F)cc2Cl)c(Cl)c1 [Example 241, 3,5-dichloro-4-(2-chloro-4-nitrophenoxy)-N-(2,4,6-trifluorophenyl)benzenesulfonamide] | + | + | + | 
13 | CC(C)(C)c1cc2cc(NS(=O)(=O)c3cc(Cl)c(Oc4ccc([N+](=O)[O-])cc4Cl)c(Cl)c3)ccc2[nH]1 [Example 245, N-(2-tert-butyl-1H-indol-5-yl)-3,5-dichloro-4-(2-chloro-4-nitrophenoxy)benzene-sulfonamide] | + | + | + | 
14 | O=S(=O)(Nc1cccc2cnccc12)c1cc(Cl)c(Oc2ccc(Cl)cc2Cl)c(Cl)c1 [Example 246, 3,5-dichloro-4-(2,4-dichlorophenoxy)-N-isoquinolin-5-ylbenzenesulfonamide] | + | + | + | 
15 | Cc1ccc(NS(=O)(=O)c2cc(Cl)c(Oc3ccc([N+](=O)[O-])cc3Cl)c(Cl)c2)cc1I [Example 250, 3,5-dichloro-4-(2-chloro-4-nitrophenoxy)-N-(3-iodo-4-methylphenyl)benzenesulfonamide] | + | + | + | 
16 | Cc1ccc(Cl)cc1NS(=O)(=O)c1cc(Cl)c(Oc2ccc([N+](=O)[O-])cc2Cl)c(Cl)c1 [Example 252, 3,5-dichloro-N-(5-chloro-2-methylphenyl)-4-(2-chloro-4-nitrophenoxy)benzene-sulfonamide] | + | + | + | 
17 | O=S(=O)(Nc1ccc(F)c(Cl)c1)c1ccc(Oc2ncc(C(F)(F)F)cc2Cl)cc1 [Example 256, N-(3-chloro-4-fluorophenyl)-4-{[3-chloro-5-(trifluoromethyl)pyridin-2-yl]oxy}benzene-sulfonamide] | + | + | + | 
18 | O=[N+]([O-])c1ccc(F)c(NS(=O)(=O)c2ccc(Oc3ncc(C(F)(F)F)cc3Cl)cc2)c1 [Example 258, 4-{[3-chloro-5-(trifluoromethyl)pyridin-2-yl]oxy}-N-(2-fluoro-5-nitrophenyl)benzene-sulfonamide] | + | + | + | 
19 | O=[N+]([O-])c1ccc(Oc2ccc(S(=O)(=O)Nc3cc(Cl)ccc3Cl)cc2Cl)c(C(F)(F)F)c1 [Example 261, 3-chloro-N-(2,5-dichlorophenyl)-4-(4-nitro-2-(trifluoromethyl)phenoxy]benzene-sulfonamide] | + | + | + | 
20 | O=[N+]([O-])c1ccc(Oc2ccc(S(=O)(=O)Nc3ccc(F)cc3C(F)(F)F)cc2Cl)c(C(F)(F)F)c1 [Example 266, 3-chloro-N-[4-fluoro-2-(trifluoromethyl)phenyl]-4-[4-nitro-2-(trifluoromethyl)phenoxy]benzenesulfonamide] | + | + | + | 
